# Results: US20100226597A1, “BORTEZOMIB AND PROCESS FOR PRODUCING SAME” (DR. REDDY'S LABORATORIES LIMITED, priority 2007, published 2010)
# “Also recorded” adds a separate entry of the source.
# Legend:
# [1] = Stability study of Bortezomib in the exemplary storage system of the invention (two polybags with external desiccant), purity by HPLC; conditions: for Initial purity: % area by HPLC
# Protocol: Two different samples of Bortezomib were stored at a storage condition of 2-8° C. and 25° C., 60% relative humidity (RH) in a storage system (packed in one Polybags having a thickness about 0.10 mm followed by repacking in another polybag having thickness of about 0.10 mm and containing external desiccant). A small quantity was taken from each sample after 15 days, 1 month (30th day), 2 months (60th day) and 3 months (90th day) and the purity was checked by HPLC and compared to the original HPLC chromatogram of each sample (before starting the storage period). The chemical purity of each sample was obtained as % area by the HPLC chromatogram and compared to the initial purity value (before starting the storage period).
# (§1) HPLC measurements of Bortezomib samples for chemical purity were performed using Waters system, equipped with Waters symmetry shield RP-18, 250X4.6 mm ID, 5 μm, particle size and a UV detector operated on 270 nm. Analyses were performed using the following mobile phase, at flow rate of 1.0 ml/minute, run time 55 minutes. Mobile phase A: Mix 700 ml water, 300 ml Acetonitrile and 1 ml formic acid, filter and degas. Mobile phase B: Mix 800 ml Acetonitrile, 200 ml water and 1 ml formic acid, filter and degas. Elution: Gradient program
# [2] = Stability study of Bortezomib stored under general storage conditions (sealed polymeric bag, 25° C. and 60% RH), purity by HPLC; assay type: physicochemical
# Protocol: as §1
# [3] = Stability study of aqueous solution of Bortezomib in basic medium (pH ~10.5), purity by HPLC
# Protocol: A small quantity was taken from solution after 1 hours, 2 hours and 3 hours and the purity was checked by HPLC and compared to the original HPLC chromatogram of initial sample (immediately after adjusting the pH). The purity of each sample was obtained as % area by the HPLC chromatogram and compared to the initial purity value.
# as §1
# [4] = stored at 2-8° C. in packaging of the invention, sample from methanol/water (Form A)
# [5] = stored at 25° C. and 60% RH in packaging of the invention, sample from ethylacetate
# [6] = 7th day, general storage conditions
# [7] = 15th day, general storage conditions
# [8] = 30th day, general storage conditions
# [9] = initial, general storage conditions
# [10] = after 1 hour, aqueous solution, pH ~10.5, 25 to 35° C.
# [11] = after 2 hours, aqueous solution, pH ~10.5, 25 to 35° C.
# [12] = after 3 hours, aqueous solution, pH ~10.5, 25 to 35° C.
# [13] = initial, aqueous solution, pH ~10.5, 25 to 35° C.
smiles,measurement,setting,value
"CC(C)C[C@H](NC(=O)[C@H](Cc1ccccc1)NC(=O)c1cnccn1)B(O)O [Bortezomib, [(1R)-3-methyl-1-[[(2S)-1-oxo-3-phenyl-2-[(pyrazinylcarbonyl)amino]propyl]amino]butyl]boronic acid]",Purity on 15th day,[1]; [4],99.59%
same,Purity on 15th day,[1]; [5],99.56%
same,Purity on 30th day,[1]; [4],99.59%
same,Purity on 30th day,[1]; [5],99.60%
same,Purity on 60th day,[1]; [4],99.65%
same,Purity on 60th day,[1]; [5],99.63%
same,Purity on 90th day,[1]; [4],99.66%
same,Purity on 90th day,[1]; [5],99.54%
same,Initial purity,[1]; [4],99.60%
same,Initial purity,[1]; [5],99.58%
same,Storage stability in words,"[1]; packaging conditions of the invention, prolonged storage periods",can be stabilized while retaining its purity content over prolonged storage periods
same,Impurity-a content on 7th day,[2]; [6],0.06%
same,Impurity-b (RR and SS diastereomers) content on 7th day,[2]; [6],0.33%
same,"Bortezomib purity by HPLC, Purity on 7th day","[2]; 7th day, general storage conditions, sample from ethylacetate",99.34%
same,Impurity-a content on 15th day,[2]; [7],0.08%
same,Impurity-b (RR and SS diastereomers) content on 15th day,[2]; [7],0.35%
same,"Bortezomib purity by HPLC, Purity on 15th day","[2]; 15th day, general storage conditions, sample from ethylacetate",98.92%
same,Impurity-a content on 30th day,[2]; [8],0.18%
same,Impurity-b (RR and SS diastereomers) content on 30th day,[2]; [8],0.39%
same,"Bortezomib purity by HPLC, Purity on 30th day","[2]; 30th day, general storage conditions, sample from ethylacetate",97.22%
same,"Impurity-a content, Initial",[2]; [9],0.06%
same,"Impurity-b (RR and SS diastereomers) content, Initial",[2]; [9],0.36%
same,"Bortezomib purity by HPLC, Initial purity","[2]; initial, general storage conditions, sample from ethylacetate",99.49%
same,Storage stability in words,"[2]; sealed polymeric bag without desiccants, normal temperature",unstable; also recorded: substantial degradation of product
same,"Chemical Purity by HPLC, After 1 hour",[3]; [10],98.24%
same,"Impurity-a content, After 1 hour",[3]; [10],0.8924%
same,"Impurity-b (RR and SS diastereomers) content, After 1 hour",[3]; [10],0.4005%
same,"Chemical Purity by HPLC, After 2 hour",[3]; [11],98.01%
same,"Impurity-a content, After 2 hour",[3]; [11],0.9587%
same,"Impurity-b (RR and SS diastereomers) content, After 2 hour",[3]; [11],0.4746%
same,"Chemical Purity by HPLC, After 3 hours",[3]; [12],97.77%
same,"Impurity-a content, After 3 hours",[3]; [12],1.0229%
same,"Impurity-b (RR and SS diastereomers) content, After 3 hours",[3]; [12],0.5418%
same,Stability in aqueous basic solution in words,[3]; aqueous solution maintained under stirring in a basic medium,decrease the purity; also recorded: purity of the compound decreased continually
same,"Chemical Purity by HPLC, Initial","[3]; initial (immediately after adjusting the pH), aqueous solution, pH ~10.5 (2N NaOH), 25 to 35° C.",98.61%
same,"Impurity-a content, Initial",[3]; [13],0.7899%
same,"Impurity-b (RR and SS diastereomers) content, Initial",[3]; [13],0.2991%
